Measurements reported in patent US9062050B2, “Inhibitor of JAK1 and JAK2” (Eli Lilly and Company, priority 2012, dated 2015).
pIC50: −log10 of the molar value.

What was measured:
phosphorylation of STAT3 = test: SUM-159-MSD-pSTAT3 cell-based assay; settings: SUM159; Sum-159 breast cancer cells, human IL-6 stimulated; read-out: IC50, inhibits the phosphorylation of STAT3
Method: The SUM-159-MSD-pSTAT3 cell-based assay is used to examine the potency of compounds at blocking STAT3 phosphorylation in breast cancer cells. Sum-159 cells (Asterand) are grown and maintained in HAM's F-12 medium (Gibco 11765-054) with 5% FBS, insulin (5 microgram/mL) and hydrocortisone (1 μg/ml). Cells are collected, counted, plated at 4×10^4 cells/well in 96-well plates, and cultured for overnight at 37° C. with 5% CO2. Culture medium is then removed and replaced with F-12-medium containing either vehicle (DMSO) alone or 2× final concentrations of compounds across a range from 0-20 μM at 1:3 dilutions (10 concentration points). After incubation for five additional hours, medium is removed and cells are treated with 100 microliters of 2× human IL-6 (20 ng/mL diluted in F-12 complete medium) and incubated for an additional 20 minutes at 37° C. in 5% CO2. […] The 96-well plates are sealed and then mixed for 2 minutes on an orbital shaker at room temperature, and then immediately frozen at −80° C. overnight. pSTAT3 is detected with the use of the MA6000 MSD Whole Cell Lysate Kit for Phospho-STAT-3 (Tyr 705) (Meso Scale Diagnostics, #K150DID-2) as described above. Plates are read by using a MSD plate reader. Data are analyzed using Graph Pad program.

JAK2 = JAK2 (Homo sapiens, UniProt O60674); test: JAK2 EPO-TF1/pSTAT5 cell-based assay (Cellomics ArrayScan HCS); set-up: endogenous in cells; host or cells: TF-1 (human erythroid leukemia) cells; settings: TF-1 cells, EPO at 1.6 U/mL, relative IC50, n=65; read-out: IC50, inhibits JAK2 (pSTAT5)
JAK2, sequence (O60674 whole entry): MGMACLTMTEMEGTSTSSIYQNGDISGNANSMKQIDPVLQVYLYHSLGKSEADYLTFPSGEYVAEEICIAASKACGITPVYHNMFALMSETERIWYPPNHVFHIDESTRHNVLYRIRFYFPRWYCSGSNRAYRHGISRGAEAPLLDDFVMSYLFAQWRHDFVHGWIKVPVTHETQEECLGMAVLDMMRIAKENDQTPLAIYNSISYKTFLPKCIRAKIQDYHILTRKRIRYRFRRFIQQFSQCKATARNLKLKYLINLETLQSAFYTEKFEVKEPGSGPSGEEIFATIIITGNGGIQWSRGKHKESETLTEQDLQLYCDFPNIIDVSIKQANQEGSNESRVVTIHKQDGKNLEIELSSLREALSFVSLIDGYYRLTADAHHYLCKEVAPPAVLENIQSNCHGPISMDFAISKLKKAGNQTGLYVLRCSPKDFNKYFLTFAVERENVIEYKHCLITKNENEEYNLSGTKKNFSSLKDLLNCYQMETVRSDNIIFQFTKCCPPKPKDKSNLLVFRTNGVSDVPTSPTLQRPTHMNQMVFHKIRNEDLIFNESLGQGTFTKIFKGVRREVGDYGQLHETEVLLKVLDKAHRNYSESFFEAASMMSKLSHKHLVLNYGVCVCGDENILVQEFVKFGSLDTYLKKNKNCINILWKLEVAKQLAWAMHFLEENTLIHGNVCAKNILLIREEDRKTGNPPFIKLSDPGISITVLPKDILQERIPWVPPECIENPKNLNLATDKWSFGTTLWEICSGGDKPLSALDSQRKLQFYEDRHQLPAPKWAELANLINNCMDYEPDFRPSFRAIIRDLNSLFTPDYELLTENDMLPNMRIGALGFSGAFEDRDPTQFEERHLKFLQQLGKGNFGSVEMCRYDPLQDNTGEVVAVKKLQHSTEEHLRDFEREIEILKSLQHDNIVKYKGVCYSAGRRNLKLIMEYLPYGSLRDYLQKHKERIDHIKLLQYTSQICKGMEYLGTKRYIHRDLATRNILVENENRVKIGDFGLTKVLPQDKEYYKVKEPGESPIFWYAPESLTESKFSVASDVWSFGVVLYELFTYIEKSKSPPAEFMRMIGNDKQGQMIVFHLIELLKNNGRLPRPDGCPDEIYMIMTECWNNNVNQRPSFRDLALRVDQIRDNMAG
From the text: The JAK2 EPO-TF1/pSTAT5 cell-based assay mimics the constitutive activation of JAK2-STAT5 in erythroid progenitor cells, which drives the overproduction of red blood cells, a marker of polycythemia vera (PV). Therefore, the EPO-TF1/pSTAT5 cell-based assay enables the evaluation of the JAK2 cellular activity of JAK compounds in vitro.
TF-1 (human erythroid leukemia) cells are maintained in RPMI 1640 (RPMI-1640 was developed by Moore et. al. at Roswell Park Memorial Institute. The formulation is based on the RPMI-1630 series of media utilizing a bicarbonate buffering system and alterations in the amounts of amino acids and vitamins.) with 10% fetal bovine serum (FBS), 0.075% sodium bicarbonate, 1 mM sodium pyruvate, 1× antibiotic/antimycotic (Invitrogen, Carlsbad, Calif.) and 0.45% glucose. The medium is supplemented with GM-CSF (granulocyte-macrophage colony-stimulating factor) at a final concentration of 2 ng/mL. Cells are kept at 37° C. with 5% CO2. […] TF-1 cells are counted and cells are collected to seed 2×10^7 cells per 96-well plate at a density of 2×10^5 cells per well. […]
To perform the assay, serum-starved cells are collected and washed once with unsupplemented RPMI 1640 medium. […] An aliquot of 200 μL of 1 to 10 dilution of Mouse anti-pSTAT5 (pY694) Alexa Fluor 647® in fluorescence activated cell sorting (FACS) buffer is added to the cells. […]

Cc1cc(Nc2ccc3ncn([C@@H]4CCc5ccc(F)cc54)c3n2)[nH]n1.Cl.Cl [Example 1, 3-[(1R)-6-fluoro-2,3-dihydro-1H-inden-1-yl]-N-(3-methyl-1H-pyrazol-5-yl)-3H-imidazo[4,5-b]pyridin-5-amine dihydrochloride]
pIC50 (phosphorylation of STAT3): 7.68 | pIC50 (JAK2): 7.46
